Measured values from patent publication US6849603B1, “Peptides for inhibition of apoptosis and pharmaceutical compositions containing them” (NSS T Neurosurvival Technologies Ltd., priority 1998, dated 2005).
Read-outs that look alike come from different tables or passages of the source.

Experiments:
HeLa cells [1] = experiment: In vitro assay system for regulation of cell death by the Bcl-2 family (Bax-induced cell death, electroporation, beta-galactosidase reporter); format: cell-based, Human; settings: for cell viability as compared to controls: expression plasmid transfected alone by electroporation, 18 hours post-transfection
Text: This assay is based on transient transfection of cultured cells (e.g., HeLa cells, SH-SY5Y neuroblastoma cells. PC12, pheochromocytoma cells, 293 kidney cells, primary neuronal cells etc.), via electroporation or cationic-lipid-mediated transfection, by an expression vector, harboring a reporter gene (e.g. the gene encoding for beta-galactosidase, or the gene encoding for luciferase). Based on the consideration that gene expression requires high level of function and integrity of cellular systems, a direct correlation can be drawn between the activity of the protein encoded by the reporter gene, and the survival rates of the transfected cells. The reporter gene is co-transfected with a second expression vector, carrying either the bcl-2 or bax genes, therefore affecting the cellular apoptotic threshold towards life or death, respectively. In addition, transfection of cells with a combination of both bcl-2 and bax genes is performed, to examine the activity of each of these two proteins in opposing the death-inhibitory or promoting-effect of the other, respectively.
(§1) a. Cell cultures: • 1. HeLa cells: Human cervical carcinoma cells (HeLa) were grown in Dulbecco's modified Eagle's medium (DMEM), supplemented with 10% fetal calf serum (FCS) and 1% penicillin-streptomycin-Nystatin solution (Biological Industries, Israel), and 1% L-Glutamine solution (2 mM, biological Industries, Israel). Cells were grown in monolayer at 37° C. in 5% CO2. • 2. Kidney 293 cells (T): Human embryonic kidney 293 cells were grown in the conditions described for the HeLa cells.
b. Models of Apoptosis: • Three model systems of cell death were used: • 1. Apoptosis induced by dopamine: Exposure of cells to dopamine at 100-500 micromolar for 24 hours induces cell death characteristic of apoptosis (Ziv I, et al., Neurosci Lett 170:136-140, 1994; Offen D, et al., Biochim Biophys Acta 1268:171-177, 1995; Masserano J M, et al., Mol Pharmacol 50:1309-1315, 1996; Shirvan A, et al., J. Neurochem 69:539-549, 1997; Corona V., et al., J. Neurochem 69:1870-1881, 1997; Velez-Pardo C, et al., Pharmacol Toxicol 80:76-84, 1997; Shinkai T, et al., J Neurosci Res. 393-399, 1997; Simantov R, et al., Neuroscience 74:39-50, 1996; Gabby M, et al., Neuropharmacology 35:571-578, 1996). […] Apoptosis induced by Bax. This model utilizes an in vitro assay system for regulation of cell death by the Bcl-2 family of proteins: Cells were grown as described above in example 3a. Cells from log phase of growth were harvested using trypsin/EDTA and resuspended at a density of 5.0×10^6 cells/ml in 400 μl PBS. Cell suspension was then transferred to electroporation chambers containing a marker plasmid (pCDNA/Lac z) encoding beta-galactosidase as a reporter gene (10 μg)+a control plasmid (pCDNA), to bring total plasmid quantity to 23 micrograms+one of the following regimens: • 1. An expression plasmid, encoding Bcl-2 (0.42 μg) • 2. An expression plasmid, encoding Bax (0.42 μg). • 3. Bcl-2-encoding plasmid+Bax-encoding plasmid (0.42 μg each). • 4. Test compound, or an expression plasmid encoding for the test peptide+either Bcl-2-encoding plasmid or Bax-encoding plasmid or both. • 5. Control: only the marker plasmid.
After one minute of incubation, electroporation was performed at 1050 μF and 220 V for a duration of 10-30 ms, using an Equibio gene pulser. Cells from the cuvettes were then pooled into a complete medium with 10% FCS, and 1×10^6 cells were aliquoted into 3.5 cm plates. At 18 hours post-transfection, cell viability was assessed through measurement of beta-galactosidase activity by standard methods (Sambrook, Fritch, Maniatis, Molecular cloning; A laboratory manual, Cold Spring Harbour Laboratory Press, pp 16.66, 1989). OD values were expressed as percent of control, and statistical significance was evaluated by appropriate parametric or non-parametric statistical tests.
Methods: An expression plasmid, encoding the DIP1 (synthesized as described above in Example 2) was used. […]

HeLa cells [2] = experiment: Dopamine-induced cell death in HeLa cells (beta-galactosidase reporter viability); format: cell-based, Human; settings: 18 hours; for cell survival rate: P<0.001
Procedure: (§2) Models of Apoptosis: • Three model systems of cell death were used: • 1. […] Apoptosis induced by Bax. This model utilizes an in vitro assay system for regulation of cell death by the Bcl-2 family of proteins: Cells were grown as described above in example 3a. Cells from log phase of growth were harvested using trypsin/EDTA and resuspended at a density of 5.0×10^6 cells/ml in 400 μl PBS. Cell suspension was then transferred to electroporation chambers containing a marker plasmid (pCDNA/Lac z) encoding beta-galactosidase as a reporter gene (10 μg)+a control plasmid (pCDNA), to bring total plasmid quantity to 23 micrograms+one of the following regimens: • 1. An expression plasmid, encoding Bcl-2 (0.42 μg) • 2. An expression plasmid, encoding Bax (0.42 μg). • 3. Bcl-2-encoding plasmid+Bax-encoding plasmid (0.42 μg each). • 4. Test compound, or an expression plasmid encoding for the test peptide+either Bcl-2-encoding plasmid or Bax-encoding plasmid or both. • 5. Control: only the marker plasmid.
Cell viability was then evaluated by the measurement of the beta-galactosidase activity, as specified above.
Synthetic DIP1 was introduced into HeLa cells with a beta-galactosidase reporter plasmid by electroporation. […] Cell viability was then evaluated by measurement of the beta-galactosidase activity.

HeLa cells [3] = settings: 18 hours
Procedure: as §2
Cell viability was then evaluated by determining beta-galactosidase activity.

[4] = system: embryonic kidney 293T cells; experiment: Cell-killing effect of Bax on embryonic kidney 293T cells (beta-galactosidase reporter); format: cell-based, Human; settings: expression plasmids encoding Bax and DIP1, Superfect transfection, 18 hours
Procedure: as §1
Methods: Human embryonic kidney 293T cells were grown as specified in Example 3.a. Cells were co-transfected using the Superfect Transfection Kit (Quiagen), with 5 μg total DNA of the following effectors: pCDNA/Lac-z reporter plasmid and one of the following:
• 1). Expression plasmid encoding DIP1. • 2). Expression plasmid encoding Bax. • 3). Expression plasmids, encoding Bax and DIP1.
After 18 hours, the cells were harvested for beta-galactosidase activity assay.
Human embryonic kidney 293T cells were co-transfected by […] with a reporter plasmid encoding beta-galactosidase, in combination with either an expression plasmid encoding DIP1; an expression plasmid encoding Bax; or expression plasmids encoding Bax and DIP1. Cell viability was evaluated after 18 hours, by measurement of beta-galactosidase activity.

For “Bcl-2: death-inhibitory protein, expressed from a transfected expression plasmid”, the “cell-killing effect of Bax on co-transfection” value (HeLa cells [1]; co-transfection with Bax-encoding plasmid, 18 hours) was “markedly counteracted” and the “cell viability as compared to controls” value (HeLa cells [1]) was “increases cell viability”.
In the case of `NCCc1ccc(O)c(O)c1` [dopamine, reference compound], the cell survival (HeLa cells [2]; dopamine 150 μM alone) is reported as 30.8 ± 6.0% of control and the cell survival (HeLa cells [2]; dopamine 300 μM alone) is reported as 8.4 ± 7.0% of control.
In the case of `OO` [hydrogen peroxide, reference compound], the cell survival rate (HeLa cells [3]; hydrogen peroxide 100 μM alone, mean±SD) is reported as 20.4±2.8% of control and the cell survival rate (HeLa cells [3]; hydrogen peroxide 200 μM alone, mean±SD) is reported as 5.8±2.1% of control.
“H-FELRYRRAF-OH [DIP1, Phe-Glu-Leu-Arg-Tyr-Arg-Arg-Ala-Phe]” was tested, and the “counteracting Bax toxicity” value [4] was “markedly active in counteracting Bax toxicity”, the cell survival rate (HeLa cells [2]; synthetic DIP1 by electroporation + dopamine 150 μM) was 75.4+9.0% and the cell survival rate (HeLa cells [2]; synthetic DIP1 by electroporation + dopamine 300 μM) was 40.2+8.0%. The cell survival rate (HeLa cells [3]; synthetic DIP1 by electroporation + hydrogen peroxide 100 μM, p<0.001) was 53.3±8.8%, the cell survival rate (HeLa cells [3]; synthetic DIP1 by electroporation + hydrogen peroxide 200 μM, p<0.001) was 33.4±3.7% and the cell survival rate (HeLa cells [1]; co-transfection of DIP1-encoding plasmid with Bax-encoding plasmid, 18 hours, p<0.001) was 71.4 ± 9.4 % of control. For the same compound, the “cell viability as compared to controls” value (HeLa cells [1]) was “markedly enhanced cell viability”.
“Bax: death-inducing Bcl-2 family protein, expressed from a transfected expression plasmid” was tested, and the cell survival rate (HeLa cells [1]; Bax-encoding plasmid alone, 18 hours) was 37.0 ± 2.2% and the “cell viability as compared to controls” value (HeLa cells [1]) was “marked death-inducing effect”.
